Consider one molecule from PubChem BioAssay AID396.

In this test the target is 14-3-3 protein beta/alpha (Homo sapiens) (UniProt P31946). Nature of the test: 14-3-3 beta ligand binding via Tm shift – biophysical, DSF, SYPRO orange, recombinant human protein (AID 396). As to conditions: Recombinant YWHAB, DSF SYPRO orange thermal shift; at 10 µM; protein 2.3 µM; buffer 10 mM HEPES; pH 7.5; NaCl 150 mM; active compounds read high.
14-3-3 protein beta/alpha (Homo sapiens), sequence (P31946 whole entry, looked up): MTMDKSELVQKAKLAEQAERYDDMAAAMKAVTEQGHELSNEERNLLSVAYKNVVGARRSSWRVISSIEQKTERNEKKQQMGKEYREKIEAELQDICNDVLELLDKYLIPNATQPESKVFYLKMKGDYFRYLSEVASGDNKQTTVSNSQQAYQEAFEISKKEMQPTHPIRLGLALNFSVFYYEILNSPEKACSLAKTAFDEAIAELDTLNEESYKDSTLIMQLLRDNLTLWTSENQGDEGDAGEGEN

In the case of `O=c1c(O)c(-c2ccc(O)c(O)c2)oc2cc(O)cc(O)c12`, the Tm shift is 3.13 Celsius.
